Laboratory results taken from the supplement of paper PMC10307832.

Legend:
Assay in all cases: relative viability (nuclei count vs DMSO), 5 days (fraction); higher = more cells survive
Bemcentinib + Linsitinib = compound: Nc1nc(Nc2ccc3c(c2)CC[C@@H](N2CCCC2)CC3)nn1-c1cc2c(nn1)-c1ccccc1CCC2 [Bemcentinib] + C[C@]1(O)C[C@@H](c2nc(-c3ccc4ccc(-c5ccccc5)nc4c3)c3c(N)nccn32)C1 [Linsitinib] (partner 1 µM)
How it was run: (§1)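 A single step with final 0.05% Triton X-100, 1% formaldehyde and 1 ug/ml Hoechst fixed the cells and stained nuclei 5 days after treatment. Lung cancer cell lines in 1536-well plates had been treated by pin tool the day after seeding with one drug alone or a fixed anchor-drug dose plus five library-drug doses (not always all listed) in √10 steps, and nuclei were counted on 4× images. Relative viability is the ratio of nuclei in treated wells to nuclei in vehicle wells, taken as the median of duplicate plates.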

Axitinib + Olaparib = compound: CNC(=O)c1ccccc1Sc1ccc2c(/C=C/c3ccccn3)n[nH]c2c1 [Axitinib] + O=C(c1cc(Cc2n[nH]c(=O)c3ccccc23)ccc1F)N1CCN(C(=O)C2CC2)CC1 [Olaparib] (partner 8 µM)
How it was run: as §1

Bemcentinib + Crizotinib = compound: Nc1nc(Nc2ccc3c(c2)CC[C@@H](N2CCCC2)CC3)nn1-c1cc2c(nn1)-c1ccccc1CCC2 [Bemcentinib] + C[C@@H](Oc1cc(-c2cnn(C3CCNCC3)c2)cnc1N)c1c(Cl)ccc(F)c1Cl [Crizotinib] (partner 1 µM)
How it was run: as §1

[1] = compound: CC1=CC=C(C=C1)C(=O)CN2C3=C(CCCC3)SC2=N [Pifithrin_alpha] + Nc1ncn([C@H]2C[C@H](O)[C@@H](CO)O2)c(=O)n1 [Decitabine] (partner 2 µM)
How it was run: as §1

Cell Line | relative viability (Bemcentinib + Linsitinib; first compound 0.04 µM) | relative viability (Bemcentinib + Linsitinib; first compound 0.1265 µM) | relative viability (Bemcentinib + Linsitinib; first compound 0.4 µM) | relative viability (Bemcentinib + Linsitinib; first compound 1.265 µM) | relative viability (Bemcentinib + Linsitinib; first compound 4 µM) | relative viability (Axitinib + Olaparib; first compound 0.005 µM) | relative viability (Axitinib + Olaparib; first compound 0.01581 µM) | relative viability (Axitinib + Olaparib; first compound 0.05 µM) | relative viability (Axitinib + Olaparib; first compound 0.1581 µM) | relative viability (Axitinib + Olaparib; first compound 0.5 µM) | relative viability (Bemcentinib + Crizotinib; first compound 0.04 µM) | relative viability (Bemcentinib + Crizotinib; first compound 0.1265 µM) | relative viability (Bemcentinib + Crizotinib; first compound 0.4 µM) | relative viability (Bemcentinib + Crizotinib; first compound 1.265 µM) | relative viability (Bemcentinib + Crizotinib; first compound 4 µM) | relative viability ([1]; first compound 1 µM) | relative viability ([1]; first compound 3.162 µM) | relative viability ([1]; first compound 10 µM) | relative viability ([1]; first compound 31.62 µM) | relative viability ([1]; first compound 100 µM)
LK-2 | 0.836 | 0.57 | 0.677 | 0.551 | 1.05 | 0.65 | 0.609 | 0.762 | 0.712 | 0.545 | 0.217 | 0.186 | 0.252 | 0.224 | 0.234 | 0.202 | 0.266 | 0.309 | 0.224 | 0.316
LOU-NH91 | 0.942 | 0.895 | 0.959 | 0.943 | 0.956 | 0.942 | 0.745 | 0.951 | 0.893 | 0.934 | 0.717 | 0.726 | 0.732 | 0.753 | 0.756 | 0.758 | 0.79 | 0.808 | 0.705 | 0.742
LU99A | 0.524 | 0.555 | 0.56 | 0.499 | 0.562 | 0.272 | 0.287 | 0.273 | 0.286 | 0.304 | 0.549 | 0.629 | 0.542 | 0.574 | 0.532 | 0.834 | 0.919 | 1.04 |  | 0.863
LXF-289 | 0.955 | 1.06 | 0.972 | 0.991 | 0.995 | 1.11 | 1.03 | 1.05 | 0.982 | 1 | 0.88 | 0.833 | 0.817 | 0.791 | 0.877 | 0.359 | 0.335 | 0.388 | 0.366 | 0.369
NCI-H23 | 0.576 | 0.692 | 0.554 | 0.72 | 0.568 | 0.284 | 0.331 | 0.334 | 0.285 | 0.312 | 0.493 | 0.608 | 0.522 | 0.613 | 0.482 | 0.317 | 0.316 | 0.317 | 0.283 | 0.337
NCI-H322M | 0.994 | 0.978 | 0.9 | 1.01 | 1.04 | 0.965 | 0.849 | 0.753 | 0.724 | 1.06 | 1.02 | 0.971 | 0.944 | 1.05 | 1.09 | 0.72 | 0.708 | 0.719 | 0.78 | 0.784
NCI-H358 | 0.77 | 0.795 | 0.788 | 0.668 | 0.796 | 0.741 | 0.567 | 0.6 | 0.594 | 0.682 | 0.587 | 0.506 | 0.511 | 0.54 | 0.53 | 0.206 | 0.205 | 0.19 | 0.217 | 0.16
NCI-H441 | 0.525 | 0.702 | 0.76 | 0.496 | 0.581 | 0.675 | 0.499 | 0.539 | 0.503 | 0.453 | 0.66 | 0.704 | 0.757 | 0.665 | 0.779 | 0.233 | 0.294 | 0.212 |  | 0.301
NCI-H460 | 0.907 | 1.04 | 1.08 | 0.983 | 0.86 | 0.411 | 0.402 | 0.514 | 0.379 | 0.498 | 0.976 | 0.994 | 0.937 | 1.04 | 0.964 | 0.531 | 0.496 | 0.392 | 0.218 | 0.215
NCI-H520 | 0.85 | 0.982 | 1.08 | 1.01 | 1.18 | 0.342 | 0.345 | 0.361 | 0.251 | 0.368 | 0.53 | 0.823 | 0.912 | 0.971 | 0.686 | 0.595 | 0.481 | 0.578 | 0.397 | 0.507
NCI-H596 | 1.03 | 1.03 | 1.03 | 1.17 | 1.06 | 0.739 | 0.663 | 0.739 | 0.719 | 0.705 | 0.969 | 1.01 | 1.08 | 1.1 | 1.05 | 0.89 | 1.15 | 1.12 | 1.07 | 1.09
NCI-H647 | 1.17 | 1.35 | 1.12 | 1.28 | 1.17 | 0.581 | 0.527 | 0.708 | 0.622 | 0.644 | 1.13 | 1.39 | 1.1 | 1.12 | 1.21 | 0.442 | 0.403 | 0.376 | 0.339 | 0.406
NCI-H661 | 0.587 | 0.53 | 0.609 | 0.656 | 0.548 | 0.724 | 0.753 | 0.741 | 0.698 | 0.834 | 0.878 | 0.947 | 0.852 | 0.998 | 1.02 | 0.536 | 0.591 | 0.587 | 0.542 | 0.469
NCI-H727 | 0.331 | 0.286 | 0.288 | 0.3 | 0.293 | 0.59 | 0.756 | 0.759 | 0.665 | 0.652 | 0.666 | 1.08 | 0.743 | 0.801 | 0.817 | 0.328 | 0.782 | 0.835 | 0.731 | 0.749
NCI-H838 | 0.995 | 1.08 | 1.02 | 1.08 | 1.05 | 0.869 | 0.712 | 0.806 | 0.756 | 0.783 | 0.805 | 0.958 | 0.906 | 0.893 | 0.869 | 0.427 | 0.473 | 0.441 | 0.387 | 0.389
NCI-H1355 | 0.858 | 0.98 | 0.848 | 0.903 | 0.99 | 0.756 | 0.769 | 0.729 | 0.723 | 0.77 | 1.08 | 1.18 | 1.07 | 1.14 | 1.17 | 0.308 | 0.349 | 0.339 | 0.29 | 0.304
